ChEMBL document CHEMBL2380262, “Pyrrolidine analogs of GZ-793A: synthesis and evaluation as inhibitors of the vesicular monoamine transporter-2 (VMAT2)” (Bioorg Med Chem Lett, 2013)

How the values were obtained:
[1] = molecular target: T1, Synaptic vesicular amine transporter (Rattus norvegicus, UniProt Q01827); experiment: Inhibition of VMAT2-mediated [3H]DA uptake in rat striatal synaptic vesicles by liquid scintillation spectroscopic analysis
[2] = molecular target: T1, Synaptic vesicular amine transporter; experiment: Displacement of [3H]DTBZ from VMAT2 in Sprague-Dawley rat synaptic vesicle membranes after 30 mins by scintillation counting analysis; assay type: cell membranes, Membrane

T1 sequence (Q01827 whole entry): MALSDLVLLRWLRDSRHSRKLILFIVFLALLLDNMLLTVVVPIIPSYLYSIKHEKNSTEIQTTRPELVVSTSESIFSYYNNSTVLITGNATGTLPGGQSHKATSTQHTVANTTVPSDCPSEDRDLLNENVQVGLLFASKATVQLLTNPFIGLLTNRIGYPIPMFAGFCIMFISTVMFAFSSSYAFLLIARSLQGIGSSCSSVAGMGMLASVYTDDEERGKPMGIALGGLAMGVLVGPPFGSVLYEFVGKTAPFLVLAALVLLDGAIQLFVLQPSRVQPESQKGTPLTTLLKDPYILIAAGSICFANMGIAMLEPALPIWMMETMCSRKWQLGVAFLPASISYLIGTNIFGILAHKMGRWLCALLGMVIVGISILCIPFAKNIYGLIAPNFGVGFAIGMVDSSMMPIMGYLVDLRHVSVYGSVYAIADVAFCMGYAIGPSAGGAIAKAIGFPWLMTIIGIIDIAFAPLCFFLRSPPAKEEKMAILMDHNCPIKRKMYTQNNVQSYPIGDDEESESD

SMILES | Ki [1] [µM] | Ki [2] [µM]
COc1ccc(CC[C@@H]2CC[C@H](CCc3ccc(OC)cc3)N2C[C@@H](O)CO)cc1 | 0.049 | 3.94
OC[C@H](O)CN1[C@H](CCc2ccc3c(c2)OCO3)CC[C@@H]1CCc1ccc2c(c1)OCO2 | 0.269 | 8.47
COc1ccc(CC[C@@H]2CC[C@H](CCc3ccc(OC)c(OC)c3)N2C[C@@H](O)CO)cc1OC | 3.78 | > 100

More lines, in order of falling Ki [1], values ahead:

Ki [1] [µM] | Ki [2] [µM] | SMILES
0.279 | 5.91 | OC[C@H](O)CN1[C@H](CCc2ccccc2)CC[C@@H]1CCc1ccccc1
0.27 | 2.35 | COc1ccccc1CC[C@@H]1CC[C@H](CCc2ccccc2OC)N1C[C@@H](O)CO
